# Assay results from patent US20260242352A1, “INHIBITION OF SHIP1 AS A THERAPEUTIC STRATEGY FOR THE TREATMENT OF ALZHEIMER'S DISEASE” (The Trustees of Indiana University, priority 2022, published 2026).
# Key:
# Assay type in all cases: cell-based
# [1] = target: T1, HiBit-labeled full length SHIP1 protein (Homo sapiens, UniProt Q92835); test: Cellular thermal shift assay (SplitLuc CETSA), thermal shift format; parameters: key: Y = ΔTm difference of 40 μM compound treated cells from control is Tm > 3SD; N: otherwise negative; conditions: 40 μM compound for 60 min, HMC3/HiBit-INPP5D cells, 38-52° C. gradient; target engagement positive/negative
# T1 construct: thermal stability of a HiBit-labeled full length SHIP1 protein in intact cells; expressed in transfected cells; host or cells: HMC3 (stably transfected)
# T1 sequence (Q92835 1-1189): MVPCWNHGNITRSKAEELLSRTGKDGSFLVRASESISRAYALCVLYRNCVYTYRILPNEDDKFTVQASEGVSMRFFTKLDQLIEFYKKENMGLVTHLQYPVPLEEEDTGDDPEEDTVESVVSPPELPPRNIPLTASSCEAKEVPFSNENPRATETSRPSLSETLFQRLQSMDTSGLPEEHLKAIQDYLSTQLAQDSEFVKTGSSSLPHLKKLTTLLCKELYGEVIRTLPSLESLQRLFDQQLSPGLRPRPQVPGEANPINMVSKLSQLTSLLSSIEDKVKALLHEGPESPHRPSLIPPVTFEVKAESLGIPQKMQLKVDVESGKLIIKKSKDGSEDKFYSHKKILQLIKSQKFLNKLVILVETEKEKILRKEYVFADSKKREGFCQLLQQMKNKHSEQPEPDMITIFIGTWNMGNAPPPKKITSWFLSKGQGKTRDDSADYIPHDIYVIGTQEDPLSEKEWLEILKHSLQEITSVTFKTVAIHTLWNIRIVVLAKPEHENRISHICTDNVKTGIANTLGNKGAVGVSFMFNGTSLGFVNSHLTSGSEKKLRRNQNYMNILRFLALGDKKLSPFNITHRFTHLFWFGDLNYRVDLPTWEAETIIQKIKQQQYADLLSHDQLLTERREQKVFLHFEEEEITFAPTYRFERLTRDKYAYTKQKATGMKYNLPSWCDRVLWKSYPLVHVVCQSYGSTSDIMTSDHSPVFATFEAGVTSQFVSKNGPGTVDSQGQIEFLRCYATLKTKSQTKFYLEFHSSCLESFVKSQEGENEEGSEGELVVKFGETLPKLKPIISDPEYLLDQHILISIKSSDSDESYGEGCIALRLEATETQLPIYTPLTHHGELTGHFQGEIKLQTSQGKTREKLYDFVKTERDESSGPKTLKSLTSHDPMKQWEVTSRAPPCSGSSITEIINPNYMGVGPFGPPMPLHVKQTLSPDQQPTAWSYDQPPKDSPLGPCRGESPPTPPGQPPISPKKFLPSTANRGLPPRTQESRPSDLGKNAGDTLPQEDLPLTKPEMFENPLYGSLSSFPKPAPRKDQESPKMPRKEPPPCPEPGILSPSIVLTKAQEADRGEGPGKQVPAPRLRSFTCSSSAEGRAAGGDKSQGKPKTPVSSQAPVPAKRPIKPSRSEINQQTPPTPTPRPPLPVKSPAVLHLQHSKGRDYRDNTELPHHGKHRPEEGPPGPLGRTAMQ
# Procedure: (§1) Cellular thermal shift assay (CETSA). […] This assay was run in the following two formats with HMC3/HiBit-INPP5D stably transfected cells.
# 1. Thermal shift: cells were treated with 40 μM compound for 60 min, then heated with a temperature gradient covering 38-52° C. for 3 min before luminescence detection. Mean and standard deviation of control Tm were determined to generate a “Mean+3SD” ΔTm, which was used as threshold to determine a significant ΔTm of compound from control. When the difference of ΔTm of compound treated cells from control Tm>3SD, the compound was considered positive for target engagement, otherwise negative. SD=average standard deviation.
# (§2) See Martinez et al. (2018) Sci Rep 8: p. 9472; Oh-Hashi et al. (2017) Biochem Biophys Rep 12: pp. 40-45. This assay was run in the following two formats with HMC3/HiBit-INPP5D stably transfected cells.
# Thermal shift: cells were treated with 40 μM compound for 60 min, then heated with a temperature gradient covering 38-52° C. for 3 min before luminescence detection. Mean and standard deviation of control Tm were determined to generate a “Mean+3SD” ΔTm, which was used as threshold to determine a significant ΔTm of compound from control. When the difference of ΔTm of compound treated cells from control Tm>3SD, the compound was considered positive for target engagement, otherwise negative. SD=average standard deviation.
# [2] = tested on: phosphorylated and total AKT (pAKT/tAKT) in THP1 cells; test: PhosphoAKT assay; conditions: Homo sapiens, THP-1, 1.5 h, 90 minutes, pAKT (S473)/tAKT ratio, (n) in cell
# Procedure: (§3) PhosphoAKT assay. THP1 cells were treated with inhibitors for 90 minutes and then the levels of phosphorylated and total AKT (pAKT/tAKT) were detected using the Perkin Elmer Alpha SureFire Ultra Multiplex PhosphoAKT (S473) kit according to the manufacturer's directions. IC50 values were calculated by fitting the ratio of pATK/tAKT versus inhibitor concentration.
# as §3, with “THP1” for “PhosphoAKT assay. THP1”
# [3] = target: T1, HiBit-labeled full length SHIP1 protein; test: Cellular thermal shift assay (SplitLuc CETSA), compound dose response; conditions: HMC3/HiBit-INPP5D cells, 60 min; for CETSA Min Inhibition (%): heated at 44.2° C.; for AC50: heated at 44.2° C. for 3 min, 8-point curve from 80 uM or 100 uM
# Procedure: as §1
# 2. Compound dose response: run at target Tm (44.2° C. for SHIP1) with compound dosing from 80 uM or 100 uM with 1:3 serial dilutions to generate an 8 point curve. Cells were treated for 60 min before being heated at target Tm for 3 min before luminescence detection. An AC50 was calculated using a four-parameter logistic curve regression model with change at highest concentration noted when difference from control >3SD, otherwise AC50 marked as “nc” for not calculated.
# as §2
# Compound dose response: run at target Tm (44.2° C. for SHIP1) with compound dosing from 80 uM or 100 uM with 1:3 serial dilutions to generate an 8-point curve. Cells were treated for 60 min before being heated at target Tm for 3 min before luminescence detection. The concentration that induced a half-maximum response (AC50) was calculated using a four-parameter logistic curve regression model with change at highest concentration noted when difference from control >3SD.
SMILES,CETSA SP [1],IC50 [2],CETSA Min Inhibition (%) [3],AC50 [3]
"Clc1ccccc1COc1cncc(-c2ccn(C3CCNCC3)n2)c1 [Compound 26, 3-((2-chlorobenzyl)oxy)-5-(1-(piperidin-4-yl)-1H-pyrazol-3-yl)pyridine]",Y,7.72 µM,14.6%,87.4 µM
"CC(C)(C)OC(=O)N1CCC(n2cc(-c3cncc(OCc4ccccc4F)c3)cn2)CC1 [Compound 2, tert-butyl 4-(4-(5-((2-fluorobenzyl)oxy)pyridin-3-yl)-1H-pyrazol-1-yl)piperidine-1-carboxylate]",N,,70.6%,
"CC(C)(C)OC(=O)N1CCC(n2cc(-c3cncc(OCc4c(Cl)cccc4Cl)c3)cn2)CC1 [Compound 5, tert-butyl 4-(4-(5-((2,6-dichlorobenzyl)oxy)pyridin-3-yl)-1H-pyrazol-1-yl)piperidine-1-carboxylate]",N,,,
"Clc1ccccc1COc1cccc(-c2cnn(C3CCNCC3)c2)c1 [Compound 29, 4-(4-(3-((2-chlorobenzyl)oxy)phenyl)-1H-pyrazol-1-yl)piperidine]",N,6.55 µM,28.4%,55 µM
"C[C@H](Oc1cncc(-c2cnn(C3CCNCC3)c2)c1)c1ccccc1Cl [Compound 21, (S)-3-(1-(2-chlorophenyl)ethoxy)-5-(1-(piperidin-4-yl)-1H-pyrazol-4-yl)pyridine]",Y,,24.9%,54.7 µM
"CC(C)(C)CCN1CCC(n2cc(-c3cncc(OCc4ccccc4Cl)c3)cn2)CC1 [Compound 15, 3-((2-chlorobenzyl)oxy)-5-(1-(1-(3,3-dimethylbutyl)piperidin-4-yl)-1H-pyrazol-4-yl)pyridine]",N,17.9 µM,66.7%,
"Clc1ccccc1COc1cncc(-n2ccc(C3CCNCC3)n2)c1 [Compound 27, 3-((2-chlorobenzyl)oxy)-5-(3-(piperidin-4-yl)-1H-pyrazol-1-yl)pyridine]",Y,> 60 µM,10.1%,57.1 µM
"CC(C)(C)OC(=O)N1CCC(n2cc(-c3cncc(OCc4ccccc4Cl)c3)cn2)CC1 [Compound 1, tert-butyl 4-(4-{5-[(2-chlorophenyl)methoxy]pyridin-3-yl}-1H-pyrazol-1-yl)piperidine-1-carboxylate]",N,,74.7%,
"CC(C)(C)OC(=O)N1CCC(n2cc(-c3cncc(OCc4ccc(Br)cc4)c3)cn2)CC1 [Compound 7, tert-butyl 4-(4-(5-((4-bromobenzyl)oxy)pyridin-3-yl)-1H-pyrazol-1-yl)piperidine-1-carboxylate]",Y*,,66.3%,
"CC(C)(C)CC(=O)N1CCC(n2cc(-c3cncc(OCc4ccccc4Cl)c3)cn2)CC1 [Compound 16, 1-(4-(4-(5-((2-chlorobenzyl)oxy)pyridin-3-yl)-1H-pyrazol-1-yl)piperidin-1-yl)-3,3-dimethylbutan-1-one]",N,> 60 µM,64.5%,79.6 µM
"Cl.Clc1ccccc1COc1cncc(-c2cnn(C3CCNCC3)c2)c1 [Compound 9, 3-((2-chlorobenzyl)oxy)-5-(1-(piperidin-4-yl)-1H-pyrazol-4-yl)pyridine hydrochloride]",Y,,16.0%,55 µM
"C[C@@H](Oc1cncc(-c2cnn(C3CCNCC3)c2)c1)c1ccc(Cl)cc1 [Compound 23, (R)-3-(1-(4-chlorophenyl)ethoxy)-5-(1-(piperidin-4-yl)-1H-pyrazol-4-yl)pyridine]",Y,4.06 µM,8.15%,50.6 µM
"Clc1ccccc1COc1cncc(-n2cc(C3CCNCC3)cn2)c1 [Compound 28, 3-((2-chlorobenzyl)oxy)-5-(4-(piperidin-4-yl)-1H-pyrazol-1-yl)pyridine]",Y,5.57 µM,5.98%,55.5 µM
"C[C@@H](Oc1cncc(-c2cnn(C3CCNCC3)c2)c1)c1ccccc1Cl [Compound 22, (R)-3-(1-(2-chlorophenyl)ethoxy)-5-(1-(piperidin-4-yl)-1H-pyrazol-4-yl)pyridine]",Y,,24.6%,43.4 µM
"Cc1ccccc1COc1cncc(-c2cnn(C3CCN(C(=O)OC(C)(C)C)CC3)c2)c1 [Compound 3, tert-butyl 4-(4-(5-((2-methylbenzyl)oxy)pyridin-3-yl)-1H-pyrazol-1-yl)piperidine-1-carboxylate]",N,31.2 µM,60.8%,77 µM
"Cc1ccccc1COc1cncc(-c2cnn(C3CCNCC3)c2)c1 [Compound 25, 3-[(2-Methylphenyl)methoxy]-5-[1-(piperidin-4-yl)-1H-pyrazol-4-yl]pyridine]",Y,58.4 µM,24.9%,83.6 µM
"Cl.Clc1ccc(COc2cncc(-c3cnn(C4CCNCC4)c3)c2)c(Cl)c1 [Compound 10, 3-((2,4-dichlorobenzyl)oxy)-5-(1-(piperidin-4-yl)-1H-pyrazol-4-yl)pyridine hydrochloride]",Y,6.52 µM,10.2%,53.8 µM
"CC(C)(C)OC(=O)N1CCC(n2cc(-c3cncc(OCc4ccccc4)c3)cn2)CC1 [Compound 4, tert-butyl 4-(4-(5-(benzyloxy)pyridin-3-yl)-1H-pyrazol-1-yl)piperidine-1-carboxylate]",N,31.6 µM,69.2%,> 80 µM
